{"source": "ChEMBL document CHEMBL1201862", "about": "“PubChem BioAssay data set” (2004)", "key": {"Paired box protein Pax-8": {"biological_target": "Paired box protein Pax-8 (Homo sapiens, UniProt Q06710)", "sequence (Q06710 whole entry)": "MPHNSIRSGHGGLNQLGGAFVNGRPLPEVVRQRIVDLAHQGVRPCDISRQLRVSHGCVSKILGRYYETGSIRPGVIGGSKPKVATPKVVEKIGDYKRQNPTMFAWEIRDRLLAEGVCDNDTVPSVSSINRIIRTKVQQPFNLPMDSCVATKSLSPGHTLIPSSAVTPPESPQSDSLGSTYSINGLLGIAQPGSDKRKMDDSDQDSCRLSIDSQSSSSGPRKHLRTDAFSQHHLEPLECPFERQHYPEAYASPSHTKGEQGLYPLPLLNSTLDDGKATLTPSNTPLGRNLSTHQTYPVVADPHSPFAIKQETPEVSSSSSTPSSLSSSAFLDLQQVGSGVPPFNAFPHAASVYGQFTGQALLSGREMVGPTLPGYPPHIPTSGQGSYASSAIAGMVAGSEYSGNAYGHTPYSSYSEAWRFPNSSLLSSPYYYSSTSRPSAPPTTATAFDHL", "experiment": "PAX8 transcriptional activity inhibition in RMG-I – RMG-I cells, luciferase, cherry-pick, dose response (AID 687027);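 note: luciferase reporter driven by Pax8 target thyroperoxidase promoter measured by SteadyGlo luminescence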", "assay_type": "functional, cell-based"}, "[1]": {"experiment": "OVCAR-3 cell viability loss – plate reader, dry powder samples, PAX8 inhibitor project, dose response (AID 743044)", "assay_type": "functional, cell-based"}, "[2]": {"experiment": "P. falciparum Dd2 growth inhibitors, dose response, SYBR Green, cherry-picked samples (AID 1159567)", "assay_type": "functional, cell-based"}, "[3]": {"experiment": "toxicity to human hepatoma HepG2 cells – cell-based, cherry-picked samples, cytotoxicity control, dose response (AID 1159577)", "assay_type": "functional"}, "[4]": {"experiment": "luciferase reporter signal suppression in cells – H4 neuroglioma cells, luminescence, dose response (AID 1990)", "assay_type": "functional, cell-based"}, "[5]": {"tested_on": "Streptococcus sp. 'group A'", "experiment": "Streptococcus pyogenes SK(-)GAS viability under kanamycin – luminescence, BacTiterGlo, confirmation, counter-screen for streptokinase expression inhibitor project, dose response (AID 1900)", "assay_type": "functional, organism-based"}, "BJ [6]": {"tested_on": "BJ", "experiment": "BJ-TERT fibroblast viability loss – cell-based, RAS-independent, luminescence, dose response (AID 1933)", "assay_type": "functional", "details": "Homo sapiens"}, "[7]": {"experiment": "Luminescence Cell-Based Dose Response HTS to Identify Inhibitors of 5'UTR Stem-Loop Driven Prion Protein mRNA Translation in H4 Neuroglioblastoma Cells. [Related pubchem assays: 1827 (Project Summary), 1813 (Primary HTS)]", "assay_type": "functional"}, "[8]": {"experiment": "alpha-synuclein stem-loop luciferase translation blockers – H4 neuroglioma cells, luminescence, confirmation (AID 1988)", "assay_type": "functional, cell-based"}, "BJ [9]": {"tested_on": "BJ", "experiment": "cells", "assay_type": "functional, cell-based", "details": "Homo sapiens"}, "[10]": {"experiment": "microbe, parasite or virus in culture", "assay_type": "functional", "details": "Mycobacterium tuberculosis"}, "BJ [11]": {"tested_on": "BJ", "experiment": "BJ-TERT-LT-ST fibroblast viability loss – cell-based, RAS-independent, luminescence, dose response (AID 1935);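 note: BJ fibroblasts immortalized with TERT plus LT and ST oncogenes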", "assay_type": "functional", "details": "Homo sapiens"}, "[12]": {"experiment": "DRD fibroblast viability loss – cell-based, non-viral oncogenic, luminescence, dose response (AID 1934)", "assay_type": "functional", "details": "Homo sapiens"}, "Streptococcus": {"tested_on": "Streptococcus", "experiment": "GAS UMAA2166 growth inhibition – luminescence, BacTiterGlo, counter-screen for streptokinase expression inhibitor project, dose response (AID 1915);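 note: potency for reduction of bacterial viability or growth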", "assay_type": "functional, organism-based"}, "BJ [13]": {"tested_on": "BJ", "experiment": "growth inhibition of engineered Ras-driven BJ cells – cell-based, alamar blue fluorescence, cherrypicked samples, dose response (AID 2631)", "assay_type": "functional", "details": "Homo sapiens"}, "INS1": {"tested_on": "INS1", "experiment": "INS-1E survival protection against cytokine death – cell-based, luminescence, retest, dose response (AID 449756);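 note: cell death triggered by IL-1 beta plus TNF-alpha plus IFN-gamma mixture; protective hits raise ATP signal compared with cytokine alone wells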", "assay_type": "functional", "details": "Rattus norvegicus"}, "[14]": {"experiment": "reduction of Shn3 3'UTR-driven luciferase in osteoblasts – cell-based, Clone20 osteoblasts, firefly luciferase, cherry-picked, dose response (AID 624132)", "assay_type": "functional"}, "[15]": {"experiment": "loss of viability in HepG2 cells – cell-based, CellTiter-Glo, cherry-picked, cytotoxicity control for Shn3 inhibitor project, dose response (AID 624134)", "assay_type": "functional"}, "[16]": {"experiment": "non-specific 3'UTR reporter inhibition in Clone20-Shn3RL – cell-based, Renilla luciferase, cherry-picked, counter-screen for Shn3 inhibitor project, dose response (AID 624133)", "assay_type": "functional"}, "[17]": {"biological_target": "T1, Histone-lysine N-methyltransferase NSD2 (Homo sapiens, UniProt O96028)", "T1 sequence (O96028 whole entry)": "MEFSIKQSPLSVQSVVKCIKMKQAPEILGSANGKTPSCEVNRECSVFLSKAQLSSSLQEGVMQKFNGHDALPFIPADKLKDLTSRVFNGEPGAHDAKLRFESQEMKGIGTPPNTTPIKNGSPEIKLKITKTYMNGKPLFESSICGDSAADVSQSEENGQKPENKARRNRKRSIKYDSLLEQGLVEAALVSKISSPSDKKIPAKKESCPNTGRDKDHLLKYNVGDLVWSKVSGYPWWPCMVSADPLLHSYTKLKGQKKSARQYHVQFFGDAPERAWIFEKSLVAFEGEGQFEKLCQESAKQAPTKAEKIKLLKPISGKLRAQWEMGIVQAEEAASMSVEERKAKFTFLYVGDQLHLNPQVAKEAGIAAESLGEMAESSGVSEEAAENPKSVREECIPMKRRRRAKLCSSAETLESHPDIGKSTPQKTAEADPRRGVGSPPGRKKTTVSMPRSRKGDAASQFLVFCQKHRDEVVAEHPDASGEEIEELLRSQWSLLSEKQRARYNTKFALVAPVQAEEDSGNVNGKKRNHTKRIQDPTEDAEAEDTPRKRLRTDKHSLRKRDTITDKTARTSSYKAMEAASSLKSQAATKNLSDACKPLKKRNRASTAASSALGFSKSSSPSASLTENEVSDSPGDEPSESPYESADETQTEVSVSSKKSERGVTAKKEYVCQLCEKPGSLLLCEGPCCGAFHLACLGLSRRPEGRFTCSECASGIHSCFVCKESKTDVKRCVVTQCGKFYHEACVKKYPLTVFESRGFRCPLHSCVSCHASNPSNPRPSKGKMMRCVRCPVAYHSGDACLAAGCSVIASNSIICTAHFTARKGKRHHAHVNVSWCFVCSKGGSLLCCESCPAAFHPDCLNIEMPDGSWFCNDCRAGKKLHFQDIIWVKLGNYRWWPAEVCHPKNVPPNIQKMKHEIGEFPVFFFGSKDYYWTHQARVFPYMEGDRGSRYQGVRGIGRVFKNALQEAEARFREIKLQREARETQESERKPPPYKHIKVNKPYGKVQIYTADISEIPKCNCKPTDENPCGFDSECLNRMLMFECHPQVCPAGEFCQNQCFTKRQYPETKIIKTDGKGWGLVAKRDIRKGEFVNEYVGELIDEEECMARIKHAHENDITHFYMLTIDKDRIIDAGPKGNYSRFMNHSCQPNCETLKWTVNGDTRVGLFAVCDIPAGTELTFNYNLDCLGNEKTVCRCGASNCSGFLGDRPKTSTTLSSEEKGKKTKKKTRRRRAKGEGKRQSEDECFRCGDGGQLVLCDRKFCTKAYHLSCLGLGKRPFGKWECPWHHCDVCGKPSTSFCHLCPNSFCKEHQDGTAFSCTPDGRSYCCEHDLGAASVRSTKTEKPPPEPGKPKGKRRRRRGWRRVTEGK", "assay_type": "biochemical"}, "[18]": {"biological_target": "T2, Apoptotic protease-activating factor 1 (Homo sapiens, UniProt O14727)", "T2 sequence (O14727 whole entry)": "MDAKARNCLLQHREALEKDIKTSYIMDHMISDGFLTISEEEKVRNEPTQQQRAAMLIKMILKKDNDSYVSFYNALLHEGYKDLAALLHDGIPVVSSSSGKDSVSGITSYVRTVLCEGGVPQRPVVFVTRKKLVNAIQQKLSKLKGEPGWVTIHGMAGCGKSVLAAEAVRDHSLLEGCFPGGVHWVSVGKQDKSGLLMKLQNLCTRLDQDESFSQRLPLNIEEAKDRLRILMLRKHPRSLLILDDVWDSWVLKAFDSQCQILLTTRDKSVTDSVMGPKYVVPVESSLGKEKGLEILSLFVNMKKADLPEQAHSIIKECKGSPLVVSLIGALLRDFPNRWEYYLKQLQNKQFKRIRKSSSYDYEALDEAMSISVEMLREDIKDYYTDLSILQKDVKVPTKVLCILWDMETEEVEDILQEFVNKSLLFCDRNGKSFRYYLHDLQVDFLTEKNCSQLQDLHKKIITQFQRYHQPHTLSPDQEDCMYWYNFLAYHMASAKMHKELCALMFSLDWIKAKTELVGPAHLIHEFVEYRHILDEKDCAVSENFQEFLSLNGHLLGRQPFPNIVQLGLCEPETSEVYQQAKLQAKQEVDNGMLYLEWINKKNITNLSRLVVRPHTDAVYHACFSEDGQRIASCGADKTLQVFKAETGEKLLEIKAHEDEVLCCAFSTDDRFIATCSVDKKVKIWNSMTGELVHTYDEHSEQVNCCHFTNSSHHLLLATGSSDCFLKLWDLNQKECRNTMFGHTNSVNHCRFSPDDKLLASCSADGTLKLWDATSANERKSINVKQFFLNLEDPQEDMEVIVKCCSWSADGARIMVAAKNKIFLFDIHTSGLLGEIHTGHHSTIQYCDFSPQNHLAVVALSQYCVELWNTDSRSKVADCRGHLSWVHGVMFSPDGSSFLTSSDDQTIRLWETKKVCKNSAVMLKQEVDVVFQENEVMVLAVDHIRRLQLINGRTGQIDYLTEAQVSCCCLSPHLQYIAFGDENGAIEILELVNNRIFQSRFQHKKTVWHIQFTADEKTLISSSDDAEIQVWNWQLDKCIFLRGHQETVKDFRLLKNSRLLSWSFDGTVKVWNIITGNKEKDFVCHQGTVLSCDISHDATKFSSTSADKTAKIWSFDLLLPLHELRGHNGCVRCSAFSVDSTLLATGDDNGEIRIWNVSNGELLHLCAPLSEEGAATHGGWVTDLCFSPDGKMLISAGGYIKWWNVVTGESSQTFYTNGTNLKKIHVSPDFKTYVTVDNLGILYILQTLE", "assay_type": "functional"}}, "note": "Active and inactive are the calls of the source."}
{"smiles": "O=C(Cc1cccnc1)N1CCCCN2[C@H](C1)[C@H](c1ccc(C#CC3CCCC3)cc1)[C@@H]2CO", "values": [{"measurement": "AC50", "setting": "Paired box protein Pax-8", "value": "5.07 µM (active)"}, {"measurement": "AC50", "setting": "[1]", "value": "9.02 µM (active)"}]}
{"smiles": "N#Cc1cccc(-c2ccc([C@@H]3[C@@H]4CN(Cc5ccccc5)C[C@H]3N4)cc2)c1", "values": [{"measurement": "AC50", "setting": "[2]", "value": "5.57 µM (active)"}, {"measurement": "AC50", "setting": "[3]", "value": "15.4 µM (active)"}]}
{"smiles": "O=[N+]([O-])c1ccc(O)c(-c2cc(C(F)(F)F)nc(-c3ccccc3)n2)c1", "values": [{"measurement": "EC50", "setting": "[4]", "value": "9.18 µM (active)"}, {"measurement": "EC50", "setting": "[5]", "value": "0.104 µM (active)"}, {"measurement": "EC50", "setting": "BJ [6]", "value": "2.44 µM (active)"}, {"measurement": "EC50", "setting": "[7]", "value": "9.13 µM (active)"}, {"measurement": "EC50", "setting": "[8]", "value": "8.04 µM (inconclusive)"}, {"measurement": "EC50", "setting": "BJ [9]", "value": "2.95 µM (active)"}, {"measurement": "CC50", "setting": "[10]", "value": "0.546 µM (active)"}, {"measurement": "EC50", "setting": "BJ [11]", "value": "2.14 µM (inconclusive)"}, {"measurement": "EC50", "setting": "[12]", "value": "2.96 µM (active)"}, {"measurement": "EC50", "setting": "Streptococcus", "value": "0.254 µM (active)"}, {"measurement": "EC50", "setting": "BJ [13]", "value": "0.571 µM (inconclusive)"}, {"measurement": "AC50", "setting": "INS1", "value": "1.05 µM (active)"}, {"measurement": "AC50", "setting": "[14]", "value": "2.73 µM (active)"}, {"measurement": "AC50", "setting": "[15]", "value": "1.61 µM (active)"}, {"measurement": "AC50", "setting": "[16]", "value": "0.906 µM (active)"}, {"measurement": "AC50", "setting": "Paired box protein Pax-8", "value": "0.811 µM (active)"}]}
{"smiles": "CC(C)N(C[C@H]1N[C@H](CO)[C@@H]1c1ccc(C2=CCCCC2)cc1)C(=O)CN(C)C", "values": [{"measurement": "AC50", "setting": "[2]", "value": "1.34 µM (active)"}, {"measurement": "AC50", "setting": "[3]", "value": "10.8 µM (active)"}]}
{"smiles": "CCCCn1c(N)c(N(CCC(C)C)C(=O)COC(=O)c2ccc([N+](=O)[O-])s2)c(=O)[nH]c1=O", "values": [{"measurement": "AC50", "setting": "Paired box protein Pax-8", "value": "8.14 µM (active)"}, {"measurement": "AC50", "setting": "[17]", "value": "12.3 µM (active)"}]}
{"smiles": "COCCN1C=C2C(=O)C(C)(OC(=O)CCC(=O)OC)C(=O)C(Br)=C2C=C1c1ccc(OC)cc1", "note": "(configuration not stated)", "values": [{"measurement": "IC50", "setting": "[18]", "value": "11 µM (active)"}]}
{"smiles": "CCCCn1cc[n+](C2=C([N-]S(=O)(=O)c3ccc(Br)cc3)C(=O)c3ccccc3C2=O)c1", "values": [{"measurement": "IC50", "setting": "[18]", "value": "8.28 µM (active)"}, {"measurement": "AC50", "setting": "INS1", "value": "2.86 µM (active)"}]}
